Experimental data as given in ChEMBL document CHEMBL3758124, “Synthesis and biological evaluation of new securinine analogues as potential anticancer agents” (Eur J Med Chem, 2016).
pIC50: −log10 of the molar value.

What was measured:
[1] = Cytotoxicity against human HCT116 cells assessed as growth inhibition at 20 uM after 72 hrs by ATPlite assay relative to control; type: functional; details: HCT-116, 72 h, read-out: GI
[2] = Cytotoxicity against human HCT116 cells assessed as growth inhibition at 10 uM after 72 hrs by ATPlite assay relative to control; type: functional; details: HCT-116, 72 h, read-out: GI
[3] = Cytotoxicity against human HCT116 cells assessed as growth inhibition at 1 uM after 72 hrs by ATPlite assay relative to control; type: functional; details: HCT-116, 72 h, read-out: GI
[4] = system: A549; test: Cytotoxicity against human A549 cells assessed as growth inhibition after 72 hrs by ATPlite assay; type: functional, cell-based; details: A549, 72 h
[5] = Cytotoxicity against human HL60 cells assessed as growth inhibition after 72 hrs by ATPlite assay; type: functional, cell-based; details: HL-60, 72 h
[6] = Cytotoxicity against human HCT116 cells assessed as growth inhibition after 72 hrs by ATPlite assay; type: functional, cell-based; details: HCT-116, 72 h
[7] = system: A-375; test: Cytotoxicity against human A375 cells assessed as growth inhibition after 72 hrs by ATPlite assay; type: functional, cell-based; details: A-375, 72 h
[8] = system: Plasma; test: Stability in rat plasma at 5 uM after 120 mins by LC-MS analysis; type: ADME, cell-free; details: 2 h
[9] = system: Plasma; test: Stability in mouse plasma at 5 uM after 120 mins by LC-MS analysis; type: ADME, cell-free; details: 2 h
[10] = system: Plasma; test: Stability in human plasma at 5 uM after 120 mins by LC-MS analysis; type: ADME, cell-free; details: 2 h
[11] = system: MCF7; test: Cytotoxicity against human MCF7 cells assessed as growth inhibition by CCK8 assay; type: functional, cell-based
[12] = system: A549; test: Cytotoxicity against human A549 cells after 72 hrs by Coulter counter analysis; type: functional, cell-based; details: A549, 72 h

Row | SMILES | inhibition of growth at 20 µM [1] [%] | inhibition of growth at 10 µM [2] [%] | inhibition of growth at 1 µM [3] [%] | also measured
1 | CC(=O)c1cccc(C2=CC3=CC(=O)O[C@@]34C[C@@H]2N2CCCC[C@@H]24)c1 | 65 | 35.3 | 3.6 | 
2 | COC(=O)c1cccc(C2=CC3=CC(=O)O[C@@]34C[C@@H]2N2CCCC[C@@H]24)c1 | 82.8 | 60.2 | 4 | 
3 | Cc1cccc(C2=CC3=CC(=O)O[C@@]34C[C@@H]2N2CCCC[C@@H]24)c1 | 92.5 | 93.3 | 75.5 | pIC50 [4]: 6.85; pIC50 [5]: 6.89; pIC50 [6]: 6.55; pIC50 [7]: 7.15
4 | Cc1ccc(C2=CC3=CC(=O)O[C@@]34C[C@@H]2N2CCCC[C@@H]24)cc1 | 82.9 | 73 | 3.4 | 
5 | O=C1C=C2C=C(c3cccc(C(F)(F)F)c3)[C@@H]3C[C@@]2(O1)[C@H]1CCCCN31 | 83.1 | 81.9 | 21 | 
6 | O=C1C=C2C=C(c3cccc(Cl)c3)[C@@H]3C[C@@]2(O1)[C@H]1CCCCN31 | 93 | 93.4 | 76.6 | pIC50 [4]: 6.96; pIC50 [5]: 6.85; pIC50 [6]: 6.64; pIC50 [7]: 7.10
7 | O=C1C=C2C=C(c3ccc4c(c3)OCO4)[C@@H]3C[C@@]2(O1)[C@H]1CCCCN31 | 90 | 86.9 | -1.7 | 
8 | COc1cccc(C2=CC3=CC(=O)O[C@@]34C[C@@H]2N2CCCC[C@@H]24)c1 | 92.8 | 92.7 | 76.3 | pIC50 [4]: 6.92; pIC50 [5]: 6.85; pIC50 [6]: 6.59; pIC50 [7]: 7.10; Stability [8]: Stable; Stability [9]: Stable; Stability [10]: Stable
9 | CC(=O)c1ccc(C2=CC3=CC(=O)O[C@@]34C[C@@H]2N2CCCC[C@@H]24)cc1 | 27.3 | 11.7 | 2.4 | 
10 | O=C1C=C2C=C(c3ccc(Cl)c(Cl)c3)[C@@H]3C[C@@]2(O1)[C@H]1CCCCN31 | 80.5 | 61 | 12.3 | 
11 | COc1ccc(C2=CC3=CC(=O)O[C@@]34C[C@@H]2N2CCCC[C@@H]24)cc1 | 24.8 | 9.4 | 11.7 | 
12 | CN(C)c1ccc(C2=CC3=CC(=O)O[C@@]34C[C@@H]2N2CCCC[C@@H]24)cc1 | 47.6 | 21.5 | 3.7 | 
13 | CN(C)c1cccc(C2=CC3=CC(=O)O[C@@]34C[C@@H]2N2CCCC[C@@H]24)c1 | 75.7 | 52.7 | 10.2 | 
14 | O=C1C=C2C=C(c3ccccc3)[C@@H]3C[C@@]2(O1)[C@H]1CCCCN31 | 87.4 | 86.7 | 6.8 | 
15 | O=C1C=C2C=C(c3ccc4c(c3)Cc3ccccc3-4)[C@@H]3C[C@@]2(O1)[C@H]1CCCCN31 | 75.1 | 53.6 | 20.9 | 
16 | O=C1C=C2C=C(c3ccc4ccccc4c3)[C@@H]3C[C@@]2(O1)[C@H]1CCCCN31 | 51.1 | 30.9 | 10.8 | 
17 | O=C1C=C2C=C(c3cccc(F)c3)[C@@H]3C[C@@]2(O1)[C@H]1CCCCN31 | 84.1 | 80.3 | 32.1 | 
18 | COC(=O)c1ccc(C2=CC3=CC(=O)O[C@@]34C[C@@H]2N2CCCC[C@@H]24)cc1 | 24.4 | 8.3 | 7.2 | 
19 | O=C1C=C2C=C(c3ccc(F)cc3)[C@@H]3C[C@@]2(O1)[C@H]1CCCCN31 | 52.5 | 30.7 | -2.6 | 
20 | COc1cc([C@@H]2c3cc4c(cc3[C@@H](O[C@@H]3O[C@@H]5CO[C@@H](C)O[C@H]5[C@H](O)[C@H]3O)[C@H]3COC(=O)[C@H]23)OCO4)cc(OC)c1O [ETOPOSIDE] |  |  |  | pIC50 [4]: 6.23; pIC50 [5]: 6.07; pIC50 [6]: < 5.00; pIC50 [7]: 6.62
21 | O=C1C=C2C=C[C@@H]3C[C@@]2(O1)[C@H]1CCCCN31 [SECURININE] | 90.7 | 50.6 | 7.6 | pIC50 [4]: < 5.00; pIC50 [5]: < 5.00; pIC50 [6]: < 5.00; pIC50 [7]: 5.21; Stability [8]: Stable; Stability [9]: Stable; Stability [10]: Stable; pIC50 [11]: 4.60; pIC50 [12]: 4.60
